The values below come from publication PMC7801313, “Effect of lurbinectedin on the QTc interval in patients with advanced solid tumors: an exposure–response analysis” (Cancer Chemotherapy and Pharmacology, 2020).

One series deals with patients. The following applies: cited from earlier work.
Series [1] deals with patients with advanced solid tumors. The series is described as follows: QT evaluation study, by time point ECG analysis. In kind it is in vivo, human. The following applies: before vs after prophylactic palonosetron 0.25 mg i.v., cycle 1 day 1. The method, then: This was a QT evaluation study (EudraCT No. 2015-000206-18; ClinicalTrials.gov: NCT02451007) performed at a subset of sites participating in a multicenter, open-label, exploratory, phase II basket clinical trial (EudraCT No: 2014-003773-42; ClinicaTrials.gov: NCT02454972) conducted in patients with selected advanced solid tumors. The schedule used in this QT evaluation study was that evaluated in the basket trial: lurbinectedin 3.2 mg/m^2 given as a 1-h i.v. infusion q3wk.
A screening ECG was collected between day -10 and day -2 before the first lurbinectedin infusion (day 1 of cycle 1) and transmitted to the central ECG laboratory to confirm the patient’s eligibility.
On day 1 of cycle 1, two baseline triplicate ECGs (three 10-s digital ECGs in close succession) were collected: one before administration of prophylactic medication or pre-dose 1, and the other after antiemetic prophylactic medication (palonosetron 0.25 mg i.v.) and before the start of the lurbinectedin infusion or pre-dose 2 (also on cycle 2).
In cycle 1 and cycle 2, the following triplicate ECGs were collected 5–10 min before their time-matched PK time points: 5 min before end of the lurbinectedin infusion (EOI), 30 min, 1, 3, 24, 72 (only on cycle 1), and 168 h after EOI.
A 12-lead automated digital ECG recorder [Mortara Instrument (Milwaukee, WI, USA) ELI-150 ECG 12-lead digital recorder] was provided by a third-party central ECG laboratory (eResearchTechnology, Inc., Philadelphia, PA, USA). Analysis and reporting of ECG data were performed by a limited number of skilled readers who were blinded to treatment time point. ECG review of a particular patient was performed by a single reader. Interval duration measurements were collected using computer-assisted caliper placements on three consecutive beats. A cardiologist then verified the interval durations and performed the morphology analysis, noting any T-U wave complex compatible with an effect on cardiac repolarization. The ECG analysis was conducted in Lead II or in Lead V5 if Lead II was not analyzable. If Lead V5 was not analyzable, then Lead V2 was used, and followed by the most appropriate lead if necessary. The mean of triplicate ECG measures at each time point for each patient was used for analyses.
Fridericia’s formula [6] is currently considered the most accurate method for correcting the effect of HR on QT interval [7], and was used as the main method for HR correction for QT (QTcF). Nevertheless, graphical inspection of QTcF and QT corrected by Bazett’s formula (QTcB) versus RR interval plots and statistical comparison of resulting squared linear regression slopes (R^2) was performed.
The primary endpoint was the change in QTc corrected by the Fridericia’s formula (ΔQTcF) between each scheduled post-baseline ECG time point and baseline at cycle 1. A patient was considered evaluable for the primary endpoint if he/she had baseline and one or more post-baseline ECG assessments.
Secondary endpoints were the ΔQTcF/lurbinectedin plasma concentration relationship, and change in other ECG parameters (i.e., HR, QRS, and PR).
The primary comparison was ΔQTcF at each ECG time point. A non-inferiority criterion of 20 ms was used to establish the absence of post-baseline QTc prolongation when compared to baseline. An analysis of variance model with mixed effects was fitted, with ΔQTc data as the dependent variable and ECG time point as the fixed effects, and patient as random effect.
Using the estimated least square means (LSM) and intra-patient standard deviation (Std) obtained from this model, a two-sided 90% confidence interval (CI) was calculated for each LSM ΔQTc. Non-inferiority was to be concluded if the upper bound (UB) of the one-sided 95% CI fell below 20 ms at each ECG time point.

For the compound `COc1cc2c(cc1O)CCN[C@]21CS[C@@H]2c3c(OC(C)=O)c(C)c4c(c3[C@H](COC1=O)N1[C@@H]2[C@H]2c3c(cc(C)c(OC)c3O)C[C@@H]([C@@H]1O)N2C)OCO4` [trabectedin], in the series on patients (3-h i.v. infusion, largest increases at 4 h after start of infusion), the heart rate change entry is “heart rate increased slightly”. In addition, the cardiac risk profile entry in the series on patients is on record as “low cardiac risk profile”.

With `O=C1c2cccc3c2[C@H](CCC3)CN1[C@@H]1CN2CCC1CC2` [prophylactic medication, palonosetron, reference compound], the “difference between mean pre-dose 1 and mean pre-dose 2 QTcF” value in series [1] was found to be 1.3 ms.
